Assay results from ChEMBL document CHEMBL6092220 (J Med Chem, 2024).
pIC50: −log10 of the molar value. Activity calls are given as the source filed them. No cut-off for these calls is given here.

How the values were obtained:
[1] = Cmax in Beagle dog at 1 mg/kg, iv; format: ADME, organism-based, Canis lupus familiaris; details: in vivo
[2] = Drug concentration in female CB17 SCID mouse spleen at 5 mg/kg, iv measured at 1 hr by LC-MS/MS analysis; format: ADME, organism-based; details: read-out: Ct
[3] = Antitumor activity against human MOLM16 cells xenografted in mouse assessed as tumor regression at 10 to 20 mg/kg, iv; format: functional, MOLM-16; details: dose 10-20 mg/kg
Cytochrome P450 2C8 = Cytochrome P450 2C8 (Homo sapiens, UniProt P10632); test: Inhibition of CYP2C8 (unknown origin); format: ADME
[4] = target: T1, Protein cereblon/Signal transducer and activator of transcription 3 (Mus musculus) (UniProt P42227+Q8C7D2); test: In-vivo PROTAC activity at STAT3/CRBN in female CB17 SCID mouse assessed as reduction STAT3 level spleen at 10 mg/kg, iv measured at 24 hrs by Western blot analysis; format: functional, organism-based; design: scale not given: the % may be the effect or the level left
[5] = target: T2, Protein cereblon/Signal transducer and activator of transcription 6 (Homo sapiens) (UniProt P42226+Q96SW2); test: PROTAC activity at STAT6/CRBN in human PBMC cells assessed as reduction in STAT6 level upto 40 uM incubated for 20 hrs by Western blot analysis; format: cell-based
[6] = Drug concentration in female CB17 SCID mouse spleen at 5 mg/kg, iv measured at 72 hrs by LC-MS/MS analysis; format: ADME, organism-based; details: read-out: Ct
[7] = target: T1, Protein cereblon/Signal transducer and activator of transcription 3 (Mus musculus); test: In-vivo PROTAC activity at STAT3/CRBN in female CB17 SCID mouse assessed as reduction STAT3 level liver at 10 mg/kg, iv measured at 24 hrs by Western blot analysis; format: functional, organism-based; design: scale not given: the % may be the effect or the level left
[8] = Stability in rat plasma assessed as half life; format: ADME, cell-free
[9] = Stability in mouse Hepatocyte assessed as half life; format: ADME, cell-based; details: hepatocytes
[10] = AUC (0 to t) in ICR mouse at 5 mg/kg, iv; format: ADME, organism-based; details: in vivo
MOLM16 = test: PROTAC activity at STAT5/CRBN in human MOLM16 cells assessed as reduction in STAT5 level upto 40 uM incubated for 4 hrs by Western blot analysis; format: cell-based
[11] = AUC (0 to t) in Beagle dog at 1 mg/kg, iv; format: ADME, organism-based, Canis lupus familiaris; details: in vivo
[12] = Half life in Beagle dog at 1 mg/kg, iv; format: ADME, organism-based, Canis lupus familiaris; details: in vivo
[13] = target: T2, Protein cereblon/Signal transducer and activator of transcription 6 (Homo sapiens); test: PROTAC activity at STAT6/CRBN in human MOLM16 cells assessed as reduction in STAT6 level incubated for 4 hrs by Western blot analysis; format: cell-based
[14] = target: T1, Protein cereblon/Signal transducer and activator of transcription 3 (Mus musculus); test: In-vivo PROTAC activity at STAT3/CRBN in female CB17 SCID mouse assessed as reduction in STAT3 level liver at 5 mg/kg, iv measured at 72 hrs by immunobloting analysis; format: functional, organism-based; design: scale not given: the % may be the effect or the level left
[15] = target: T3, Protein cereblon/Signal transducer and activator of transcription 3 (Homo sapiens, UniProt P40763+Q96SW2); test: PROTAC activity at his-SUMO-tagged STAT3 (127 to 688 residues)/CRBN in human PBMC cells assessed as reduction in STAT3 level incubated for 20 hrs by Western blot analysis; format: cell-based
[16] = target: T3, Protein cereblon/Signal transducer and activator of transcription 3; test: PROTAC activity at STAT3/CRBN in human MOLM16 cells assessed as reduction in STAT3 level at 340 nM incubated for 4 hrs by Western blot analysis; format: cell-based; design: scale not given: the % may be the effect or the level left
[17] = AUC (0 to t) in Sprague-Dawley rat at 5 mg/kg, iv; format: ADME, organism-based; details: in vivo
[18] = target: T1, Protein cereblon/Signal transducer and activator of transcription 3 (Mus musculus); test: In-vivo PROTAC activity at STAT3/CRBN in female CB17 SCID mouse assessed as reduction in STAT3 level spleen at 5 mg/kg, iv measured at 72 hrs by immunobloting analysis; format: functional, organism-based; design: scale not given: the % may be the effect or the level left
[19] = target: Signal transducer and activator of transcription 1-alpha/beta (Homo sapiens) (UniProt P42224); test: Binding affinity to STAT1 (unknown origin) assessed as maximum inhibition by FP assay relative to control
[20] = target: Protein cereblon/Signal transducer and activator of transcription 1-alpha/beta (Homo sapiens, UniProt P42224+Q96SW2); test: PROTAC activity at STAT1/CRBN in human MOLM16 cells assessed as reduction in STAT1 level at > 8 uM incubated for 4 hrs by Western blot analysis; format: cell-based
[21] = target: T2, Protein cereblon/Signal transducer and activator of transcription 6 (Homo sapiens); test: PROTAC activity at STAT6/CRBN in human Pfeiffer cells transfected with STAT3 K658R mutant assessed as reduction in STAT6 level upto 40 uM incubated for 20 hrs by Western blot analysis; format: cell-based
[22] = Stability in human Hepatocyte assessed as half life; format: ADME, cell-based; details: hepatocytes
[23] = Drug concentration in female CB17 SCID mouse plasma at 5 mg/kg, iv measured at 1 hr by LC-MS/MS analysis; format: ADME, organism-based
[24] = target: T3, Protein cereblon/Signal transducer and activator of transcription 3; test: PROTAC activity at his-SUMO-tagged STAT3 (127 to 688 residues)/CRBN in human MOLM16 cells assessed as reduction in STAT3 level upto 40 uM incubated for 4 hrs by Western blot analysis relative to control; format: cell-based; design: scale not given: the % may be the effect or the level left
[25] = target: Signal transducer and activator of transcription 6 (Homo sapiens, UniProt P42226); test: Binding affinity to STAT6 (unknown origin) by FP assay
[26] = target: Protein cereblon/Signal transducer and activator of transcription 4 (Homo sapiens, UniProt Q96SW2+Q14765); test: PROTAC activity at STAT4/CRBN in human SU-DHL-1 cells assessed as reduction in STAT4 level incubated for 20 hrs by Western blot analysis; format: cell-based; details: dose <= 40.0 µM
[27] = Stability in dog plasma assessed as half life; format: ADME, cell-free, Canis lupus familiaris
[28] = target: Protein cereblon/Signal transducer and activator of transcription 5B (Homo sapiens) (UniProt P51692+Q96SW2); test: PROTAC activity at STAT5B/CRBN in human PBMC cells assessed as reduction in STAT5B level upto 40 uM incubated for 20 hrs by Western blot analysis; format: cell-based
[29] = target: T1, Protein cereblon/Signal transducer and activator of transcription 3 (Mus musculus); test: In-vivo PROTAC activity at STAT3/CRBN in female CB17 SCID mouse assessed as reduction in STAT3 level tumor at 5 mg/kg, iv measured at 72 hrs by immunobloting analysis; format: functional, organism-based; design: scale not given: the % may be the effect or the level left
[30] = target: T1, Protein cereblon/Signal transducer and activator of transcription 3 (Mus musculus); test: In-vivo PROTAC activity at STAT3/CRBN in female CB17 SCID mouse assessed as STAT3 depletion liver at 5 mg/kg, iv measured at 1 hr by immunobloting analysis; format: functional, organism-based
[31] = Drug concentration in female CB17 SCID mouse tumor at 5 mg/kg, iv measured at 3 hrs by LC-MS/MS analysis; format: ADME, organism-based, Neoplasm; details: read-out: Ct
[32] = Drug concentration in female CB17 SCID mouse liver at 5 mg/kg, iv measured at 24 hrs by LC-MS/MS analysis; format: ADME, organism-based; details: read-out: Ct
hERG (KCNH2) = hERG (KCNH2) (Homo sapiens, UniProt Q12809); test: Inhibition of hERG at 30 uM relative to control; format: toxicity
Cytochrome P450 2D6 = Cytochrome P450 2D6 (Homo sapiens, UniProt P10635); test: Inhibition of CYP2D6 (unknown origin); format: ADME
[33] = Clearance in ICR mouse assessed as hepatic blood flow at 5 mg/kg, iv; format: ADME, organism-based; details: in vivo
Cytochrome P450 1A2 = Cytochrome P450 1A2 (Homo sapiens, UniProt P05177); test: Inhibition of CYP1A2 (unknown origin); format: ADME

COC(=O)N1CC[C@H]2CC[C@@H](C(=O)N[C@@H](CCC(N)=O)C(=O)N[C@@H](Cc3ccc(F)c(F)c3)C(=O)N3CCC(CCC#Cc4cccc5c4CN(C4CCC(=O)NC4=O)C5=O)CC3)N2C(=O)[C@@H](NC(=O)c2cc3cc(C(F)(F)P(=O)(O)O)ccc3s2)C1 (some centres undefined)
Cmax [1]: 8860 ng/mL | concentration at 1 h [2]: 2870 ng/g | Activity [3]: 100% | pIC50 (Cytochrome P450 2C8): < 5.00 | Activity [4]: > 90% | Activity [5]: inactive | concentration at 72 h [6]: 568 ng/g | Activity [7]: > 90% | t1/2 [8]: > 2 h | t1/2 [9]: > 2 h | AUC(0-t) [10]: 859000 ng·h/mL | Activity (MOLM16): inactive | AUC(0-t) [11]: 10700 ng·h/mL | half-life [12]: 2.3 h | Activity [13]: inactive | Activity [14]: > 90% | DC50 [15]: 0.0001 µM | Activity ([15]; dose 0.1-4000 nM): Dose-dependent-effect | Activity [16]: 100% | AUC(0-t) [17]: 59500 ng·h/mL | Activity [18]: > 90% | Imax [19]: 100% | Activity [20]: Active | Activity [21]: inactive | t1/2 [22]: > 2 h | concentration at 1 h [23]: 47300 ng/mL | Activity [24]: > 95% | pIC50 [25]: < 5.00 | Activity [26]: Dose-dependent-effect | t1/2 [27]: > 2 h | Activity [28]: inactive | Activity [29]: > 90% | Activity [30]: > 70% | concentration at 3 h [31]: 2830 ng/g | concentration at 24 h [32]: 1250 ng/g | inhibition at 30 µM (hERG (KCNH2)): 1.1% | pIC50 (Cytochrome P450 2D6): < 5.00 | QH [33]: 0.1% | pIC50 (Cytochrome P450 1A2): < 5.00
